Numbered stars: 1 amine (or outer) side, 2 acyl side, 3 side chain; on linkers, the order of the positions; unused ones are H or OH. Bridge positions count the residues as written; N and C are the ends. Square brackets hold non-standard residues; d marks the D form. Side chains are listed from the residue outwards. Peptide text beside a SMILES is read from it. * marks the point of attachment. γGlu = O=C(O)[C@H](CCC(=O)[*:2])N[*:1]; Diglycolyl = O=C(COCC(=O)[*:2])[*:1]; Glutaryl = O=C(CCCC(=O)[*:2])[*:1]; Suc = O=C(CCC(=O)[*:2])[*:1]; Decanoyl = CCCCCCCCCC(=O)*; Isobutyryl = CC(C)C(=O)*; Orn = NCCC[C@H](N)C(=O)O; Dab = NCC[C@H](N)C(=O)O; Dap = NC[C@H](N)C(=O)O; Bz = O=C(c1ccccc1)*; Ava = NCCCCC(=O)O; GABA = NCCCC(=O)O; βAla = NCCC(=O)O
tested on: MCP-1; experiment: In vitro chemotaxis (trans-well migration) v MCP-1; format: cell-based, human
Method in brief: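 Trans-well migration toward IL-8 or MCP-1 placed below, with agent added to THP-1 cells (10^4-10^6) in the top well and incubation at 37° C (e.g. 4 hours). MTT absorbance at 595 nm, interpolated on a cell standard curve, gives migrated cell numbers; TGFβ-type negative control and cytotoxicity check included.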

Row | SMILES | EC50 [nM]
1 | CC[C@H](C)[C@@H]1NC(=O)[C@H](Cc2c[nH]c3ccccc23)NC(=O)[C@H](CCCCN)NC(=O)[C@@H](NC(C)=O)CCC(=O)NCC[C@@H](C(N)=O)NC(=O)[C@H](CCC(N)=O)NC1=O [Example 114, Ac-c(Glu-Lys-Trp-Ile-Gln-Dab)-NH2] (Ac-EKWIQ[Dab]-NH2; lactam 1-6) | 8
2 | CC[C@H](C)[C@@H]1NC(=O)[C@H](Cc2c[nH]c3ccccc23)NC(=O)[C@H](CCCCN)NC(=O)[C@@H](NC(C)=O)CCC(=O)NCCC[C@@H](C(N)=O)NC(=O)[C@H](CCC(N)=O)NC1=O [Example 115, Ac-c(Glu-Lys-Trp-Ile-Gln-Orn)-NH2] (Ac-EKWIQ[Orn]-NH2; lactam 1-6) | 5
3 | CC[C@H](C)[C@@H]1NC(=O)[C@H](Cc2c[nH]c3ccccc23)NC(=O)[C@H](CCCCN)NC(=O)[C@@H](NC(C)=O)CCC(=O)NCCCC[C@@H](C(N)=O)NC(=O)[C@H](CCC(N)=O)NC1=O [Example 116, Ac-c(Glu-Lys-Trp-Ile-Gln-Lys)-NH2] (Ac-EKWIQK-NH2; lactam 1-6) | 8
4 | CC[C@H](C)[C@@H]1NC(=O)[C@H](Cc2c[nH]c3ccccc23)NC(=O)[C@H](CCCCN)NC(=O)[C@@H](NC(C)=O)CNC(=O)C[C@@H](C(N)=O)NC(=O)[C@H](CCC(N)=O)NC1=O [Example 117, Ac-c(Dap-Lys-Trp-Ile-Gln-Asp)-NH2] (Ac-[Dap]KWIQD-NH2; lactam 1-6) | 5
5 | CC[C@H](C)[C@@H]1NC(=O)[C@H](Cc2c[nH]c3ccccc23)NC(=O)[C@H](CCCCN)NC(=O)[C@@H](NC(C)=O)CCNC(=O)C[C@@H](C(N)=O)NC(=O)[C@H](CCC(N)=O)NC1=O [Example 118, Ac-c(Dab-Lys-Trp-Ile-Gln-Asp)-NH2] (Ac-[Dab]KWIQD-NH2; lactam 1-6) | 8
6 | CC[C@H](C)[C@@H]1NC(=O)[C@H](Cc2c[nH]c3ccccc23)NC(=O)[C@H](CCCCN)NC(=O)[C@@H](NC(C)=O)CCCNC(=O)C[C@@H](C(N)=O)NC(=O)[C@H](CCC(N)=O)NC1=O [Example 119, Ac-c(Orn-Lys-Trp-Ile-Gln-Asp)-NH2] (Ac-[Orn]KWIQD-NH2; lactam 1-6) | 8
7 | CC[C@H](C)[C@@H]1NC(=O)[C@H](Cc2c[nH]c3ccccc23)NC(=O)[C@H](CCCCN)NC(=O)[C@@H](NC(C)=O)CCCCNC(=O)C[C@@H](C(N)=O)NC(=O)[C@H](CCC(N)=O)NC1=O [Example 120, Ac-c(Lys-Lys-Trp-Ile-Gln-Asp)-NH2] (Ac-KKWIQD-NH2; lactam 1-6) | 8
8 | CC[C@H](C)[C@@H]1NC(=O)[C@H](Cc2c[nH]c3ccccc23)NC(=O)[C@H](CCCCN)NC(=O)[C@@H](NC(C)=O)CNC(=O)CC[C@@H](C(N)=O)NC(=O)[C@H](CCC(N)=O)NC1=O [Example 121, Ac-c(Dap-Lys-Trp-Ile-Gln-Glu)-NH2] (Ac-[Dap]KWIQE-NH2; lactam 1-6) | 10
9 | CC[C@H](C)[C@@H]1NC(=O)[C@H](Cc2c[nH]c3ccccc23)NC(=O)[C@H](CCCCN)NC(=O)[C@@H](NC(C)=O)CCNC(=O)CC[C@@H](C(N)=O)NC(=O)[C@H](CCC(N)=O)NC1=O [Example 122, Ac-c(Dab-Lys-Trp-Ile-Gln-Glu)-NH2] (Ac-[Dab]KWIQE-NH2; lactam 1-6) | 10
10 | CC[C@H](C)[C@@H]1NC(=O)[C@H](Cc2c[nH]c3ccccc23)NC(=O)[C@H](CCCCN)NC(=O)[C@@H](NC(C)=O)CCCNC(=O)CC[C@@H](C(N)=O)NC(=O)[C@H](CCC(N)=O)NC1=O [Example 123, Ac-c(Orn-Lys-Trp-Ile-Gln-Glu)-NH2] (Ac-[Orn]KWIQE-NH2; lactam 1-6) | 7
11 | CC[C@H](C)[C@@H]1NC(=O)[C@H](Cc2c[nH]c3ccccc23)NC(=O)[C@H](CCCCN)NC(=O)[C@@H](NC(C)=O)CCCCNC(=O)CC[C@@H](C(N)=O)NC(=O)[C@H](CCC(N)=O)NC1=O [Example 124, Ac-c(Lys-Lys-Trp-Ile-Gln-Glu)-NH2] (Ac-KKWIQE-NH2; lactam 1-6) | 8
12 | CC[C@H](C)[C@@H]1NC(=O)[C@H](Cc2c[nH]c3ccccc23)NC(=O)[C@H](CCCCN)NC(=O)CCC(=O)NC[C@@H](C(N)=O)NC(=O)[C@H](CCC(N)=O)NC1=O [Example 125, c(Succinyl-Lys-Trp-Ile-Gln-Dap)-NH2] (KWIQ[Dap]-NH2; linker N-5 via Suc) | 15
13 | CC[C@H](C)[C@@H]1NC(=O)[C@H](Cc2c[nH]c3ccccc23)NC(=O)[C@H](CCCCN)NC(=O)CCC(=O)NCC[C@@H](C(N)=O)NC(=O)[C@H](CCC(N)=O)NC1=O [Example 126, c(Succinyl-Lys-Trp-Ile-Gln-Dab)-NH2] (KWIQ[Dab]-NH2; linker N-5 via Suc) | 6
14 | CC[C@H](C)[C@@H]1NC(=O)[C@H](Cc2c[nH]c3ccccc23)NC(=O)[C@H](CCCCN)NC(=O)CCCC(=O)NC[C@@H](C(N)=O)NC(=O)[C@H](CCC(N)=O)NC1=O [Example 127, c(Glutaryl-Lys-Trp-Ile-Gln-Dap)-NH2NH2] (KWIQ[Dap]-NH2; linker N-5 via Glutaryl) | 7
15 | CC[C@H](C)[C@@H]1NC(=O)[C@H](Cc2c[nH]c3ccccc23)NC(=O)[C@H](CCCCN)NC(=O)CCCC(=O)NCC[C@@H](C(N)=O)NC(=O)[C@H](CCC(N)=O)NC1=O [Example 128, c(Glutaryl-Lys-Trp-Ile-Gln-Dab)-NH2] (KWIQ[Dab]-NH2; linker N-5 via Glutaryl) | 10
16 | CC[C@H](C)[C@@H]1NC(=O)[C@H](Cc2c[nH]c3ccccc23)NC(=O)[C@H](CCCCN)NC(=O)CCCC(=O)NCCCC[C@@H](C(N)=O)NC(=O)[C@H](CCC(N)=O)NC1=O [Example 129, c(Glutaryl-Lys-Trp-Ile-Gln-Lys)-NH2] (KWIQK-NH2; linker N-5 via Glutaryl) | 400
17 | CC[C@H](C)[C@@H]1NC(=O)[C@H](Cc2c[nH]c3ccccc23)NC(=O)[C@H](CCCCN)NC(=O)COCC(=O)NC[C@@H](C(N)=O)NC(=O)[C@H](CCC(N)=O)NC1=O [Example 130, c(Diglycolyl-Lys-Trp-Ile-Gln-Dap)-NH2] (KWIQ[Dap]-NH2; linker N-5 via Diglycolyl) | 50
18 | CC[C@H](C)[C@@H]1NC(=O)[C@H](Cc2c[nH]c3ccccc23)NC(=O)[C@H](CCCCN)NC(=O)COCC(=O)NCC[C@@H](C(N)=O)NC(=O)[C@H](CCC(N)=O)NC1=O [Example 131, c(Diglycolyl-Lys-Trp-Ile-Gln-Dab)-NH2] (KWIQ[Dab]-NH2; linker N-5 via Diglycolyl) | 30
19 | CC[C@H](C)[C@@H]1NC(=O)[C@H](Cc2c[nH]c3ccccc23)NC(=O)[C@H](CCCCN)NC(=O)COCC(=O)NCCC[C@@H](C(N)=O)NC(=O)[C@H](CCC(N)=O)NC1=O [Example 132, c(Diglycolyl-Lys-Trp-Ile-Gln-Orn)-NH2] (KWIQ[Orn]-NH2; linker N-5 via Diglycolyl) | 200
20 | CCCCCCCCCC(=O)N[C@@H](CCC(=O)NCCCC[C@H](N)C(=O)N[C@H]1CSSC[C@@H](C(N)=O)NC(=O)[C@H](CCC(N)=O)NC(=O)[C@H]([C@@H](C)CC)NC(=O)[C@H](Cc2c[nH]c3ccccc23)NC(=O)[C@H](CCCCN)NC(=O)[C@H](CCC(N)=O)NC(=O)[C@H](CCCCN)NC(=O)[C@@H]2CCCN2C(=O)[C@H](CC(=O)O)NC(=O)[C@H](CC(C)C)NC1=O)C(=O)O [Example 173, Lys{Nε-[γ-Glu-(Nα-decanoyl)]}-c(Cys-Leu-Asp-Pro-Lys-Gln-Lys-Trp-Ile-Gln-Cys)-NH2] (H-K([γGlu-Decanoyl])CLDPKQKWIQC-NH2; disulfide 2-12) | > 1000
21 | CC(C)(C)OC(=O)N1Cc2ccccc2C[C@H]1C(=O)NCCC(=O)NC1CCC(=O)NC1=O (stereo partly drawn) [Example 174, BOC-Tic-βAla-α-aminoglutaramide] | 200
22 | N[C@@H](Cc1c[nH]c2ccccc12)C(=O)NCC(=O)NC1CCC(=O)NC1=O (stereo partly drawn) [Example 180, Trp-Gly-α-aminoglutaramide] | 25
23 | CC(C)[C@H](NC(=O)[C@@H](N)Cc1c[nH]c2ccccc12)C(=O)NC1CCC(=O)NC1=O (stereo partly drawn) [Example 181, Trp-Val-α-aminoglutaramide] | 20
24 | CC[C@@H](C)[C@H]1NC(=O)[C@@H](CCC(N)=O)NC(=O)[C@H](NC(C)=O)CSSC[C@H](C(N)=O)NC(=O)[C@@H](CCCCN)NC(=O)[C@@H](Cc2c[nH]c3ccccc23)NC1=O [Example 190, Ac-c(D-Cys-D-Gln-D-Ile-D-Trp-D-Lys-D-Cys)-NH2] (Ac-[dC][dQ][dI][dW][dK][dC]-NH2; disulfide 1-6) | 30
25 | CC[C@@H](C)[C@H]1NC(=O)[C@@H](CCC(N)=O)NC(=O)[C@H](NC(=O)c2ccccc2)CSSC[C@H](C(N)=O)NC(=O)[C@@H](CCCCN)NC(=O)[C@@H](Cc2c[nH]c3ccccc23)NC1=O [Example 192, Benzoyl-c(D-Cys-D-Gln-D-Ile-D-Trp-D-Lys-D-Cys)-NH2] (Bz-[dC][dQ][dI][dW][dK][dC]-NH2; disulfide 1-6) | 7
26 | CC[C@@H](C)[C@H]1NC(=O)[C@@H](CCC(N)=O)NC(=O)[C@H](NC(=O)C(C)C)CSSC[C@H](C(N)=O)NC(=O)[C@@H](CCCCN)NC(=O)[C@@H](Cc2c[nH]c3ccccc23)NC1=O [Example 193, Isobutyryl-c(D-Cys-D-Gln-D-Ile-D-Trp-D-Lys-D-Cys)-NH2] (Isobutyryl-[dC][dQ][dI][dW][dK][dC]-NH2; disulfide 1-6) | 25
27 | CC[C@@H](C)[C@H]1NC(=O)[C@@H](CCC(N)=O)NC(=O)CCNC(=O)C[C@H](C(N)=O)NC(=O)[C@@H](CCCCN)NC(=O)[C@@H](Cc2c[nH]c3ccccc23)NC1=O [Example 195, c((βAla-D-Gln-D-Ile-D-Trp-D-Lys-D-Asp)-NH2] ([βAla][dQ][dI][dW][dK][dD]-NH2; lactam N-6) | 45
28 | CC[C@@H](C)[C@H]1NC(=O)[C@@H](CCC(N)=O)NC(=O)CCCNC(=O)C[C@H](C(N)=O)NC(=O)[C@@H](CCCCN)NC(=O)[C@@H](Cc2c[nH]c3ccccc23)NC1=O [Example 196, c(Gaba-D-Gln-D-Ile-D-Trp-D-Lys-D-Asp)-NH2] ([GABA][dQ][dI][dW][dK][dD]-NH2; lactam N-6) | 50
29 | CC[C@@H](C)[C@H]1NC(=O)[C@@H](CCC(N)=O)NC(=O)CCCCNC(=O)C[C@H](C(N)=O)NC(=O)[C@@H](CCCCN)NC(=O)[C@@H](Cc2c[nH]c3ccccc23)NC1=O [Example 197, c(Apn-D-Gln-D-Ile-D-Trp-D-Lys-D-Asp)-NH2] ([Ava][dQ][dI][dW][dK][dD]-NH2; lactam N-6) | 20

— patent US20110038885A1, “CHEMOKINE ANALOGS” (priority 2007, published 2011)
